# Data published in PubChem BioAssay (NCI).
#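 Method: 48-hour compound exposure of cells in 96-well plates, five concentrations, linear interpolation of endpoints. TGI: total growth inhibition.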
# Key:
# Assay in all cases: DTP human tumour cell line panel, 48 h
# [1] = test system: A549 NSCLC
# [2] = test system: HL-60(TB) leukemia
# [3] = test system: SR leukemia
# [4] = test system: SF-539 CNS
# [5] = test system: CCRF-CEM leukemia
# [6] = test system: NCI-H522 lung
# [7] = test system: KM12 colon
# [8] = test system: IGROV1 ovarian
# [9] = test system: COLO 205 colon
# [10] = test system: DMS 273 small cell lung
# [11] = test system: HOP-92 NSCLC
# [12] = test system: SK-MEL-28 melanoma
# [13] = test system: SW-620 colon
# [14] = test system: A498 renal
# [15] = test system: RXF 393 renal
# [16] = test system: NCI-H226 lung
# [17] = test system: M19-MEL melanoma
# [18] = test system: XF 498 CNS
# [19] = test system: SNB-19 CNS
# [20] = test system: OVCAR-8 ovarian
# [21] = test system: 786-0 renal
# [22] = test system: CAKI-1 renal
# [23] = test system: NCI-H23 lung
# [24] = test system: OVCAR-4 ovarian
# [25] = test system: KM20L2 colon
# [26] = test system: HCT-15 colon
# [27] = test system: LXFL 529 NSCLC
# [28] = test system: LOX IMVI melanoma
# [29] = test system: U251 CNS
# [30] = test system: OVCAR-3 ovarian
# [31] = test system: SF-268 CNS
# [32] = test system: UO-31 renal
# [33] = test system: SF-295 CNS
# [34] = test system: DMS 114 small cell lung
# [35] = test system: RPMI-8226 leukemia
# [36] = test system: NCI-H460 lung
# [37] = test system: SNB-78 CNS
# [38] = test system: M14 melanoma
# [39] = test system: HT29 colon
# [40] = test system: OVCAR-5 ovarian
# [41] = test system: HOP-18 NSCLC
# [42] = test system: MOLT-4 leukemia
# [43] = test system: K-562 leukemia
# [44] = test system: HOP-62 NSCLC
# [45] = test system: SK-OV-3 ovarian
# [46] = test system: EKVX NSCLC
# [47] = test system: DLD-1 colon
# [48] = test system: SK-MEL-2 melanoma
# [49] = test system: UACC-257 melanoma
# [50] = test system: HCT-116 colon
# [51] = test system: TK-10 renal
# [52] = test system: SK-MEL-5 melanoma
# [53] = test system: UACC-62 melanoma
# [54] = test system: HCC-2998 colon
# [55] = test system: ACHN renal
# [56] = test system: SN12C renal
# [57] = test system: HS 578T breast
# [58] = test system: NCI/ADR-RES ovarian
# [59] = test system: SNB-75 CNS
# [60] = test system: DU-145 prostate
# [61] = test system: MCF7 breast
# [62] = test system: T-47D breast
# [63] = test system: BT-549 breast
# [64] = test system: MDA-N
# [65] = test system: MDA-MB-435
# [66] = test system: PC-3 prostate
# [67] = test system: MDA-MB-231 breast
# [68] = test system: MALME-3M melanoma
compound,measurement,setting,value
CNc1ccc(/C=C2\C=Cc3ccccc32)cc1,TGI,[1],> 100 µM
same,TGI,[2],> 100 µM
same,TGI,[3],> 100 µM
same,TGI,[4],> 100 µM
same,TGI,[5],> 100 µM
same,TGI,[6],25.3 µM
same,TGI,[7],26.4 µM
same,TGI,[8],> 100 µM
same,TGI,[9],33.3 µM
same,TGI,[10],71.3 µM
same,TGI,[11],50.9 µM
same,TGI,[12],> 100 µM
same,TGI,[13],> 100 µM
same,TGI,[14],96.8 µM
same,TGI,[15],> 100 µM
same,TGI,[16],57.3 µM
same,TGI,[17],> 100 µM
same,TGI,[18],> 100 µM
same,TGI,[19],> 100 µM
same,TGI,[20],> 100 µM
same,TGI,[21],> 100 µM
same,TGI,[22],> 100 µM
same,TGI,[23],57.7 µM
same,TGI,[24],> 100 µM
same,TGI,[25],35.8 µM
same,TGI,[26],> 100 µM
same,TGI,[27],> 100 µM
same,TGI,[28],24.5 µM
same,TGI,[29],> 100 µM
same,TGI,[30],51.9 µM
same,TGI,[31],> 100 µM
same,TGI,[32],30.5 µM
same,TGI,[33],99 µM
same,TGI,[34],44.9 µM
same,TGI,[35],> 100 µM
same,TGI,[36],37.9 µM
same,TGI,[37],> 100 µM
same,TGI,[38],36.1 µM
same,TGI,[39],38.4 µM
same,TGI,[40],45 µM
same,TGI,[41],55.2 µM
same,TGI,[42],> 100 µM
same,TGI,[43],> 100 µM
same,TGI,[44],53.7 µM
same,TGI,[45],> 100 µM
same,TGI,[46],91.1 µM
same,TGI,[47],> 100 µM
same,TGI,[48],42 µM
same,TGI,[49],> 100 µM
same,TGI,[50],> 100 µM
same,TGI,[51],54.6 µM
same,TGI,[52],54.3 µM
same,TGI,[53],71.9 µM
same,TGI,[54],31.4 µM
same,TGI,[55],54.5 µM
same,TGI,[56],> 100 µM
O=C1C=CC(=O)c2c(O)ccc(O)c21,TGI,[1],33.1 µM
same,TGI,[57],6.57 µM
same,TGI,[2],0.831 µM
same,TGI,[3],1.75 µM
same,TGI,[4],5.84 µM
same,TGI,[5],0.966 µM
same,TGI,[6],1.16 µM
same,TGI,[7],13 µM
same,TGI,[8],15.5 µM
same,TGI,[9],1.66 µM
same,TGI,[10],7.55 µM
same,TGI,[11],3.21 µM
same,TGI,[12],2.76 µM
same,TGI,[13],1.1 µM
same,TGI,[14],7.78 µM
same,TGI,[15],2.02 µM
same,TGI,[16],18.5 µM
same,TGI,[58],3.72 µM
same,TGI,[17],1.49 µM
same,TGI,[18],3.07 µM
same,TGI,[19],16.6 µM
same,TGI,[20],2.05 µM
same,TGI,[21],2.55 µM
same,TGI,[22],2.82 µM
same,TGI,[23],7.39 µM
same,TGI,[24],4.97 µM
same,TGI,[25],4.97 µM
same,TGI,[26],1.65 µM
same,TGI,[59],6.98 µM
same,TGI,[60],28 µM
same,TGI,[61],6.59 µM
same,TGI,[27],1.64 µM
same,TGI,[28],3.8 µM
same,TGI,[29],14.8 µM
same,TGI,[62],4.61 µM
same,TGI,[30],5.87 µM
same,TGI,[31],8.39 µM
same,TGI,[32],4.69 µM
same,TGI,[33],16.1 µM
same,TGI,[34],5.27 µM
same,TGI,[63],4.8 µM
same,TGI,[36],9.79 µM
same,TGI,[37],6.37 µM
same,TGI,[38],1.32 µM
same,TGI,[39],5.68 µM
same,TGI,[40],13.1 µM
same,TGI,[41],2.17 µM
same,TGI,[42],4.45 µM
same,TGI,[43],> 25 µM
same,TGI,[44],19.3 µM
same,TGI,[45],27.5 µM
same,TGI,[64],8.18 µM
same,TGI,[46],7.4 µM
same,TGI,[47],0.891 µM
same,TGI,[48],17.4 µM
same,TGI,[49],2.45 µM
same,TGI,[65],13.1 µM
same,TGI,[66],29.5 µM
same,TGI,[50],2.39 µM
same,TGI,[51],2.75 µM
same,TGI,[67],6.64 µM
same,TGI,[68],2.39 µM
same,TGI,[52],6.08 µM
same,TGI,[53],3.95 µM
same,TGI,[54],10.5 µM
same,TGI,[55],2.67 µM
same,TGI,[56],3.08 µM
